Results reported in patent US20130245029A1, “TREATMENT OF CANCER WITH TOR KINASE INHIBITORS” (SIGNAL PHARMACEUTICALS, LLC, priority 2012, published 2013).

How the values were obtained:
[1] = system: Ewing's sarcoma cell lines (ETS positive cells); test: DNA damage COMET assay; assay type: cell-based; settings: 48 hours treatment, FIG. 2
Text: DNA Damage Assays: COMET Assay.

[2] = system: ETS overexpressing Ewing sarcoma cell lines; test: Soft agar colony formation (clonogenic growth inhibition); assay type: cell-based; settings: 3 weeks in culture, ETS positive versus ETS negative cell lines, FIG. 1
Experimental: FIG. 1 provides a clonogenic growth inhibition assay for Compound 1 with ETS positive and ETS negative cell lines. […] Soft Agar Colony Formation. A solid layer of 1% agarose is used to coat each well of a 96-well plate. After allowing two hours to cool, five hundred Ewing's cells are suspended in a 33% agarose (10% solution), 33% media with 2×FBS and 33% cell suspension in quadruplicate wells of a 96-well plate. Cells are treated with or without TOR kinase inhibitor in an upper layer of media. Every three days, the media is exchanged for fresh TOR kinase inhibitor containing media. After 3-weeks in culture, images are taken on a 10× objective lens and colonies are counted for each condition.

## CCN1C(=O)CNc2ncc(-c3ccc(-c4nc[nH]n4)nc3C)nc21 [Compound 1, 1-ethyl-7-(2-methyl-6-(1H-1,2,4-triazol-3-yl)pyridin-3-yl)-3,4-dihydropyrazino[2,3-b]pyrazin-2(1H)-one]
[1]
  DNA damage (COMET tail moments): potentiates DNA damage
[2]
  sensitivity of colony formation to inhibition: more sensitive
